Laboratory results as given in patent US5801144A, “Use of a compound for the manufacture of a medicament for the treatment of HIV infection” (priority 1992, dated 1998).
“Also recorded” adds a separate entry of the source. Like-named read-outs stand apart in the source and are kept apart here.

Columns and labels:
HIV-1 [1] = conditions: drug-containing medium replaced with growth medium alone, one week
Procedure: Method: Culture fluid was collected from:
1. chronically infected cells grown in growth medium;
3. chronically infected cells grown in 10 μg/ml of FK506 and for 1 week after removal of compound;
Each culture was titrated at serial ten-fold dilutions. Each dilution was used to infect Molt 4 cells in duplicate. The end point was recorded after 10 days.

[2] = system: Molt 4 cells chronically infected with HIV-1; assay: Growth-rate of chronically infected T-cells; format: cell-based
Procedure: (§1) Method: Molt 4 cells and the clone of the same cells, chronically infected with HIV-1, were seeded separately at an approximate concentration of 5×10^4 cells/ml. Five separate cultures of each of the two cell populations were seeded. […] At 24 hour intervals samples were taken for cell counting. Feeding with or without the corresponding chemical was done after the fourth day. AZT was also used in parallel.

CD4 [3] = assay: CD4 expression on non-infected cells (flow cytometry); format: cell-based; conditions: 1 and 4 μg/ml, 3 days
Procedure: (§2) Each cell preparation was kept separately at a concentration of 1 and 4 μg/ml of each drug for 3 days. Infected and uninfected cells were suspended at a concentration of 10^6 /ml in phosphate buffered saline (PBS) containing 0.1% sodium azide. Triplicate aliquots of 100 μl were incubated separately with 20 μl Leu-3a (FITC) (Ortho (Becton Dickinson UK Ltd) or with 10 μl OKT4a (FITC) Diagnostic Systems). After 20 min at 22° C. the cells were washed twice with PBS and resuspended in 0.51% paraformaldehyde/PBS (Sigma). The preparations were fixed overnight at 4° C. and subsequently analysed by flow cytometry (FACScan, Becton Dickinson UK Ltd). The median channel fluorescence was recorded for each sample.

CD4 [4] = assay: CD4 expression on HIV-1 chronically infected cells (flow cytometry); format: cell-based; conditions: 1 and 4 μg/ml, 3 days
Procedure: as §2

[5] = system: non-infected Molt 4 cells; assay: Growth-rate of non-infected T-cells; format: cell-based
Procedure: as §1

NDK strain of HIV-1 = assay: Giant cell assay: co-cultivation of HIV-1 chronically infected Molt 4 cells with non-infected Molt 4 cells; format: cell-based
Procedure: Method: A clone of the leukaemia T-cell line Molt 4, which expresses a very high level of CD4, was selected. This was infected with the highly cytopathic NDK strain of HIV-1^6 and a clone which is chronically infected with the virus but which readily replicates was selected. When these HIV-infected cells w ere co-cultivated with non-infected Molt 4 cells at a ratio of 100 non-infected:1 infected cell, very large giant cells were formed within 24 hours.
(§3) The effects of serum from healthy HIV-1 infected individuals and AIDS patients on giant cell formation was also examined. In addition the level of cytotoxicity and anti-HIV-1 activity of these substances was tested in an anti-HIV assay system which has been previously described^7. This enabled us to establish the anti-viral activity and cytotoxicity in parallel and to compare it to the effects of AZT on virus inhibition and cell division.

HIV-1 [6] = assay: Anti-HIV assay system (HIV-1 replication, cytotoxicity in parallel); format: cell-based
Procedure: as §3

HIV-2 = assay: Giant cell / cytopathic effect on co-cultivation of HIV-2 chronically infected cells with uninfected cells; format: cell-based; conditions: co-cultivation in the presence of the drugs, within 24 hours

C=CC[C@@H]1/C=C(\C)C[C@H](C)C[C@H](OC)[C@H]2O[C@@](O)(C(=O)C(=O)N3CCCC[C@H]3C(=O)O[C@H](/C(C)=C/[C@@H]3CC[C@@H](O)[C@H](OC)C3)[C@H](C)[C@@H](O)CC1=O)[C@H](C)C[C@@H]2OC [FK506, 16-Allyl-1, 14-dihydroxy-12-[2-(4-hydroxy-3-methoxycyclohexyl)-1-methylvinyl]-23,25-dimethoxy-13,19,21,27-tetramethyl-11,28-dioxa-4-azatricyclo-[22,3,1,0^4,9]octacos-18-ene-2,3,10,16-tetrone]
production of infectious HIV-1 after drug removal (HIV-1 [1]): increase in the production of infectious HIV-1 to the levels which preceded the drug treatment
effect on growth / replication of HIV-1 chronically infected cells [2]: inhibited the replication; also recorded: inhibit the growth of the chronically infected cells
cell division of chronically infected cells at 4 μg/ml ([2]; 4 μg/ml): significant reduction in cell division
number of chronically infected cells at 10 μg/ml ([2]; 10 μg/ml, after a week in culture): only a marginal increase in the number of cells
effect on growth / replication of HIV-1 chronically infected cells ([2]; listed as FK): significantly inhibited the replication
CD4 expression on uninfected Molt 4 cells (CD4 [3]): expressed a high level of CD4
CD4 expression on chronically HIV-1 infected Molt 4 cells (CD4 [4]): does not seem to be affected
cell division of uninfected cells at 4 μg/ml [5]: did not appear to slow cell division
growth of uninfected cells, first five days [5]: did not affect the growth of uninfected cells
number of uninfected cells after day five at 10 μg/ml [5]: only a marginal increase in the number of cells
delay of cytopathic effect / giant cell formation (anti-HIV-1 activity) (NDK strain of HIV-1; HIV-1, co-cultivation in the presence of the drugs, within 24 hours): delay of the cytopathic effect; also recorded: delay in the formation of giant cells
giant cell formation after drug pre-treatment of infected cells (NDK strain of HIV-1; chronically infected cells cultured one week with drug, washed, co-cultivated without drug): a few small giant cells could be seen during the first 24 hours
onset of cytopathic effects, in particular giant cell formation (NDK strain of HIV-1; chronically infected cells grown with drug for five days and then washed): inhibition of and a delay in the onset of cytopathic effects
giant cell formation (NDK strain of HIV-1; co-cultured in the presence of 10 μg/ml, examined after 24 hours): only a few small giant cells
HIV-1 replication at 1 μg (HIV-1 [6]; at 1 μg): only a partial decrease
antiviral activity at non-toxic concentrations (HIV-1 [6]; non-toxic concentrations): marginal antiviral activity
inhibition of HIV-1 replication (comparison with AZT) (HIV-1 [6]; various concentrations, FIG. 1): far lower than that of AZT
delay of cytopathic effect / giant cell formation (anti-HIV-2 activity) (HIV-2): delay of the cytopathic effect; also recorded: delay in the formation of giant cells
